# Source: ChEMBL document CHEMBL1143584, “Synthesis of 2',3'-dideoxynucleoside 5'-alpha-P-borano-beta,gamma-(difluoromethylene)triphosphates and their inhibition of HIV-1 reverse transcriptase” (J Med Chem, 2005)
# Columns and labels:
# [1] = Half-life determined in fetal calf serum; format: ADME, Bos taurus; details: cattle
# [2] = biological target: Human immunodeficiency virus type 1 reverse transcriptase (Human immunodeficiency virus 1, UniProt Q72547); assay: Inhibitory constant against HIV-1 reverse transcriptase
SMILES,half-life [1],Ki [2]
BP(=O)(OC[C@@H]1CC[C@H](n2ccc(N)nc2=O)O1)OP(=O)(O)C(F)(F)P(=O)(O)O (stereo not given in full),> 48 h,23 nM
BP(=O)(OC[C@H]1O[C@@H](n2cc(F)c(N)nc2=O)CS1)OP(=O)(O)C(F)(F)P(=O)(O)O (stereo not given in full),–,1770 nM
Nc1nc(=O)n([C@H]2CS[C@@H](COP(=O)(O)OP(=O)(O)OP(=O)(O)O)O2)cc1F,–,501 nM
BP(=O)(OC[C@H]1O[C@@H](n2ccc(N)nc2=O)CS1)OP(=O)(O)C(F)(F)P(=O)(O)O (mixture of isomers),> 48 h,314 nM
O=c1ccn([C@H]2CC[C@@H](COP(=O)(O)OP(=O)(O)OP(=O)(O)O)O2)c(=O)[nH]1,1 h,545 nM
Cc1cn([C@H]2C[C@H](F)[C@@H](COP(=O)(O)OP(=O)(O)OP(=O)(O)O)O2)c(=O)[nH]c1=O,–,71 nM
Nc1ccn([C@H]2CC[C@@H](COP(=O)(O)OP(=O)(O)OP(=O)(O)O)O2)c(=O)n1 [DDCTP],0.8 h,–
BP(=O)(OC[C@@H]1CC[C@H](n2cc(C)c(=O)[nH]c2=O)O1)OP(=O)(O)C(F)(F)P(=O)(O)O (mixture of isomers),–,236 nM
BP(=O)(OC[C@@H]1C=C[C@H](n2cnc3c(O)nc(N)nc32)C1)OP(=O)(O)C(F)(F)P(=O)(O)O (stereo not given in full),–,34 nM
Cc1cn([C@H]2C[C@H](O)[C@@H](COP(=O)(O)OP(=O)(O)OP(=O)(O)O)O2)c(=O)[nH]c1=O [DEOXYTHYMIDINE_TRIPHOSPHATE],–,61 nM
BP(=O)(OC[C@H]1O[C@@H](n2cc(C)c(=O)[nH]c2=O)C[C@@H]1F)OP(=O)(O)C(F)(F)P(=O)(O)O (stereo not given in full),–,46 nM
Cc1cn([C@H]2C=C[C@@H](COP(=O)(O)OP(=O)(O)OP(=O)(O)O)O2)c(=O)[nH]c1=O [STAVUDINE TRIPHOSPHATE],–,56 nM
BP(=O)(OC[C@@H]1CC[C@H](n2ccc(=O)[nH]c2=O)O1)OP(=O)(O)C(F)(F)P(=O)(O)O (stereo not given in full),> 48 h,438 nM
Cc1cn([C@H]2C[C@H](N=[N+]=[N-])[C@@H](CO[P@](=O)(O)O[P@](=O)(O)OP(=O)(O)O)O2)c(=O)[nH]c1=O [ZIDOVUDINE TRIPHOSPHATE],2 h,91 nM
Nc1ccn([C@H]2CC[C@@H](CO)O2)c(=O)n1 [ZALCITABINE],–,51 nM
Nc1ccn([C@@H]2CS[C@H](COP(=O)(O)OP(=O)(O)OP(=O)(O)O)O2)c(=O)n1 [LAMIVUDINE TRIPHOSPHATE],3 h,188 nM
BP(=O)(OC[C@@H]1CC[C@H](n2cnc3c(N)ncnc32)O1)OP(=O)(O)C(F)(F)P(=O)(O)O (stereo not given in full),–,47 nM
NC1=NCc2c(ncn2[C@H]2CC[C@@H](COP(=O)(O)OP(=O)(O)OP(=O)(O)O)O2)C1=O,–,25 nM
BP(=O)(OC[C@@H]1C=C[C@H](n2cc(C)c(=O)[nH]c2=O)O1)OP(=O)(O)C(F)(F)P(=O)(O)O (stereo not given in full),–,45 nM
"BP(=O)(OC[C@@H]1CC[C@H](n2cnc3c(O)nc(N)cc32)O1)OP(=O)(O)C(F)(F)P(=O)(O)O (single isomer, unassigned; diastereomer I)",–,71 nM
BP(=O)(OC[C@H]1O[C@@H](n2cc(C)c(=O)[nH]c2=O)C[C@@H]1N=[N+]=[N-])OP(=O)(O)C(F)(F)P(=O)(O)O (stereo not given in full),> 48 h,94 nM
Nc1nc(O)c2ncn([C@H]3C=CC(COP(=O)(O)OP(=O)(O)OP(=O)(O)O)C3)c2n1 (stereo not given in full),–,37 nM
Nc1ncnc2c1ncn2[C@H]1CC[C@@H](COP(=O)(O)OP(=O)(O)OP(=O)(O)O)O1 [DDA-TRIPHOSPHATE],–,20 nM
